Source: patent publication US7071147B2, “Weed control process” (priority 2001, dated 2006)

Experiments:
[1] = system: Redroot pigweed (AMARE), normal wild variety (non-tolerant); assay: Glasshouse postemergence herbicide test, percentage damage on normal wild (non-tolerant) plants; type: in vivo; details: rates of Table 1; 13 days after application
Excerpt: (§1) The soil was a silty clay loam mixed with fertiliser (12-12-12) at the rate of 128 g fertiliser to 10 gallons of soil.
(§2) The tolerant seeds were planted 13 days earlier than the non-tolerant seeds in order to get the seedlings to a similar size by the time the herbicide was applied. The time difference in planting was based on earlier observations of germination speed. On application of the herbicides, the tolerant plants had reached the 6-9 leaf stage, and the non-tolerant plants the 5-leaf stage.
(§3) Herbicide solutions were made by dissolving the herbicide(s) in tap water containing 0.5% of a commercial surfactant, ‘Tween 20’. The solutions were applied at […] and 40 p.s.i pressure, using an 80015E nozzle. After spraying, the plants were placed in a glasshouse at 29/20° C. day/night temperature and 45/65% day/night relative humidity and a photoperiod of 14 hours.
(§4) The figures in the mesotrione and atrazine columns are g/ha of herbicide applied to the test pots. The figures in the subsequent columns are percentage damage observed 13 days after application of the relevant herbicide composition. The numbers range from 0 (no effect) to 100 (dead plants). The main area of focus for the present invention is the effect on tolerant plants, and the effect on non-tolerant plants was only measured for comparative purposes.

[2] = system: Redroot pigweed (AMARE), variant known to exhibit triazine tolerance; type: in vivo; details: 13 days after application; for effect on tolerant plants (in words): rates of Table 1
Excerpt: as §1, §2, §3, §4

| SMILES | effect on non-tolerant plants (in words) [1] | effect on tolerant plants (in words) [2] | damage level on tolerant plants ([2]; 0.90 g/ha mesotrione alone) |
| --- | --- | --- | --- |
| CCNc1nc(Cl)nc(NC(C)C)n1 [Atrazine, atrazine] | significantly damaging | no effect at all |  |
| CS(=O)(=O)c1ccc(C(=O)C2C(=O)CCCC2=O)c([N+](=O)[O-])c1 [mesotrione] | causes damage | causes damage | 2 |
